Assay [1] has as its system subjects with MDD at imminent risk for suicide. Kind of assay: MADRS suicide item ([…]2001). The assay is classed as in vivo, human. The conditions noted are these: 84 mg; Day 1: 4-hours postdose, Day 2 (DB), End Point (DB); two-sided level 0.20. From the text:
• a. Changes from baseline to Day 2 and Day 25 for the MADRS total score • b. Changes from baseline to Day 1 4-hours postdose, Day 2 and Day 25 for the MADRS Suicide Item • c. Changes from baseline to Day 1 4-hours postdose, Day 2, and Day 25 for the clinical global judgment of suicide risk from the Suicide Ideation and Behavior Assessment Tool (SIBAT) • d. Sustained response (Onset of Clinical Response) defined as at least 50% reduction from baseline in MADRS total score with onset on Day 1 that is maintained through the end of the double-blind phase (Day 25) • e. Changes from baseline to Day 1 4-hours postdose, Day 2, and Day 25 for the Beck Scale for Suicidal Ideation (BSS) • f. Changes from baseline to Day 1 4-hours postdose and Day 25 for the Beck Hopelessness Scale
Results of the change from baseline over time for the suicide item from the MADRS assessment can be found in Attachment 1.

For assay [2] the test system is unchanged. In words: Study completion/withdrawal, double-blind phase ([…]2001). Particulars: esketamine 84 mg; all randomized analysis set, N = 36. The assay is classed as in vivo, human. The procedure: Of the 68 subjects in the all randomized analysis set, 19 (27.9%) subjects discontinued from the double-blind phase. More subjects in the esketamine 84 mg group discontinued due to adverse events (5 subjects in the esketamine 84 mg group versus 1 subject in the placebo group) whereas more subjects in the placebo group discontinued due to lack of efficacy (4 subjects in the placebo group versus 1 subject in the esketamine 84 mg group).

These results are taken from US11980596B2 (priority 2017, dated 2024).

With `CN[C@]1(c2ccccc2Cl)CCCCC1=O` [esketamine, (S)-2-(2-chlorophenyl)-2-(methylamino)cyclohexanone], the “MADRS suicide item: change from baseline vs placebo” value in assay [1] is recorded as “Statistically significant differences favoring esketamine”. Further, the “Withdrawn from double-blind phase: Lack of Efficacy” value in assay [2] is listed as 1 (2.8%) subjects (%).
